Structures can show the parent of a compound that is named as a salt.
Key:
[1] = Safety assessment (ECG, pulse rate, blood pressure, laboratory, adverse events) in healthy male volunteers; format: in vivo, human
Experimental: Dose-rates administered locally into the hand vein were intended not to result in any systemic effects which were monitored by repeated measurements of heart rate and blood pressure. Blood pressure was taken before and after every infusion of drugs or solvents (sodium chloride, phenylephrine, Substance P); a 12-lead ECG was monitored continuously up to the end of the hand vein compliance measurements.
Safety was assessed by measuring ECG, pulse rate, blood pressure, haematology, blood chemistry, urinalysis, and by occurrence of adverse events.
(§1) Source verification of all data documented in case report forms was performed by an independent clinical monitor. Nineteen individuals were randomized and thus included in the safety analysis. Only the randomized participants who completed both dosing sessions according to protocol were included in the pharmacodynamic analysis (n=17). Two participants had to be withdrawn due to methodological problems during hand vein measurements. One of these two was exposed to Compound D and complete pharmacokinetic data were obtained leading to data sets of 18 participants for pharmacokinetic analysis.

NK-1 receptor = biological target: T1, NK-1 receptor (Homo sapiens, UniProt P25103); assay: Antagonism of Substance P-induced venodilation, dorsal hand vein compliance technique; format: in vivo
T1 construct: measuring the antagonism of Substance P-induced venodialation using the hand vein compliance technique; from tissue; host or cells: dorsal hand vein of healthy male volunteers, in vivo
T1 sequence (P25103 whole entry): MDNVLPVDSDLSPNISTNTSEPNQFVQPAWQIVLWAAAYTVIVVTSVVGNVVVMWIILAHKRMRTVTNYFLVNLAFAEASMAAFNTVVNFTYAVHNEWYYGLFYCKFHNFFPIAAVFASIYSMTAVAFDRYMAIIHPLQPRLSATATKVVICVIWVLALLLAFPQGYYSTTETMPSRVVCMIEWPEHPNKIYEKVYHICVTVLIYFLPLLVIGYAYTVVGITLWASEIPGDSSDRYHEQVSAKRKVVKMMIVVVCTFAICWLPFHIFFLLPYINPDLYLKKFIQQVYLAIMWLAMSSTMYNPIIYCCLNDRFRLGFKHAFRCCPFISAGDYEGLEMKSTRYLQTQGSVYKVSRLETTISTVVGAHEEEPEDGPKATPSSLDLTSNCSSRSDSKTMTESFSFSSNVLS
Experimental: (§2) The pharmacokinetics after a single oral dose of the dihydrochloride salt of Compound D ((2R)-1-[3,5-bis(trifluoromethyl)benzoyl]-2-(1H-indol-3-ylmethyl)-4-{[5-(morpholinomethyl)-2H-1,2,3-triazol-4-yl]methyl}piperazine-dihydrochloride) were assessed in healthy male volunteers. Pharmacodynamic effects were also evaluated by measuring the antagonism of Substance P-induced venodialation using the hand vein compliance technique.
The participants abstained from alcohol for at least 24 hours and from methylxanthine-containing beverages for at least 12 hours before the measurements of hand vein compliance were made. […] Venodilator responses were investigated in a quiet room maintained at a constant temperature between 23 and 25° C. using the dorsal hand vein compliance technique according to Aellig (See W. H. Aellig, A new technique for recording compliance of human hand veins. 1981. Br J Clin Pharmacol 2004; 58:S768-74) with modifications as described previously (Fricker R, et al., Endothelial venodilator response in carriers of genetic polymorphisms involved in NO synthesis and degradation. Br J Clin Pharmacol 2004; 58:169-77).
Hand vein compliance measurements started in the morning and the participants were asked to remain in a supine position throughout the study. The hand under investigation was placed on a vacuum pillow sloping upwards at an angle of 30° from horizontal. All vasoactive compounds were administered through a butterfly needle at a constant flow rate (0.25 ml·min^−1) into the vein under investigation. In each participant, the same hand vein was used for both study phases. Changes of the diameter of the vein were recorded using a linear variable differential transformer (Schaevitz®, Type 100 MHR, Pennsauken, N.J., USA) with a freely movable core (weight 0.5 g) resting over the centre of the vein under investigation. Transformer signals were amplified by a Schaevitz® CAS series signal conditioner and the output was recorded on a strip-chart recorder (LKB 2210 recorder, LKB Produkter AB®, Bromma, Sweden) at a paper speed of 0.5 cm·min^−1. The difference between the position of the core before and during inflation of a sphygmomanometer cuff on the same upper arm to 40 mmHg gave a measure of the diameter changes under a given congestion pressure. Peak heights on the strip-chart recorder were linearly proportional to the movement of the core and were measured manually in units according to standard operating procedures.
After having installed the tripod for hand vein compliance technique and having established a stable initial baseline with […] defined as 100% relaxation, increasing dose-rates of the selective α1-adrenoceptor agonist phenylephrine (Neo-Synephrine®, Abbott Laboratories, North Chicago, USA; dosages: 1.25−≦8000 ng·min^−1) were locally infused to constrict the vein by about 80%. This preconstriction baseline was defined as 0%, and the effect of subsequently administered vasodilators was expressed in percentage changes from the difference between the initial baseline diameter during normal saline and the diameter during stable preconstriction.
Once preconstriction was stable, Substance P (Calbiochem/Novabiochem AG, Läufelfingen, Switzerland) was co-administered until the maximal venodilation was reached (approximately 7-10 minutes). To prevent the peptide from sticking to tubing and syringes, substance P was dissolved in a 4% gelatine solution. Based on the experience of previous experiments in this setting, a Substance P dose rate of (1.5 pmol/min) was selected. If a participant reacted with less than 50% venodilation to the dose of 1.5 pmol/min, the dose was doubled to 3 pmol/min.
Next, Compound D as described herein (250 mg and 25 mg quinine sulphate) or placebo (25 mg quinine sulphate), both dissolved in water for injection and mint syrup, were administered as an oral solution. […]

[2] = Pharmacokinetics after a single oral dose in healthy male volunteers (plasma, HPLC-MS/MS); format: in vivo, human
Experimental: as §2
Nineteen healthy male non-smokers participated in a randomized, double-blind, placebo-controlled, cross-over study after each gave written informed consent. Only healthy volunteers without concurrent drug use were included in the study. […] Further exclusion criteria were: a history of allergies, known conditions causing endothelial dysfunction as diabetes, hyperlipidemia, arterial hypertension, hyperhomocysteinemia, and smoking, regular medication or treatment with drugs within the last 2 weeks, acute or chronic illness, and drug or alcohol abuse.
Next, Compound D as described herein (250 mg and 25 mg quinine sulphate) or placebo (25 mg quinine sulphate), both dissolved in water for injection and mint syrup, were administered as an oral solution. Quinine was added for blinding to mimic the bitter taste of Compound D and mint syrup to disguise the slightly yellowish colour as well as bitter taste. The infusion of Substance P (same dose as before study drug administration) was repeated at the following time points: 0.5 h, 1.25 h, 2 h, 2.75 h, 3.5 h, and 4.25 h after dosing. Each peptide application was separated by a wash-out phase of 45 min to avoid the occurrence of tolerance.
Venous blood samples for Compound D were taken 0.25 h before as well as 0.25 h, 0.5 h, 0.75 h, 1 h, 1.25 h, 2.0 h, 2.75 h, 3.5 h, 4.25 h, 6 h, 8 h, 12 h, and 24 h after administration. Blood was drawn into vials containing dry heparin, immediately stored on ice (+4° C.) and plasma was separated within 30 min at 3500 rpm for 10 min. The samples were stored at −20° C. until analysis. When time points of pharmacodynamic (hand vein compliance method) and pharmacokinetic measurements coincided the pharmacodynamic measurements were first finished before blood samples were taken, accepting a delay for pharmacokinetic sampling of about 5 min.
The plasma samples were then analyzed by extracting Compound D and its internal standard from plasma with diethylether, concentration and injection into an HPLC system with MS/MS detection. Accuracy and precision were within specifications; bias was <12%; the inter-day coefficient of variation was <14%. The lower limit of quantification was set at 0.2 ng/ml.
as §1
The area under the effect-time curve (AUCe) was calculated according to the trapezoidal rule. Statistical analysis of AUCe was performed using a mixed model analysis of variance (ANOVA) including the factors subject, sequence, period, and treatment. Pharmacokinetic calculations were performed using WinNonlin Professional 4.0.1 for Windows (Pharsight Corporation, Mountain View, Calif. 94040, USA). Differences in vital signs and dose-rates were assessed with Wilcoxon signed rank test, unless stated otherwise. Data are expressed as mean±SEM. A p-value of less than 0.05 was considered significant.

[3] = 250 mg oral, among participants

response to SNP (sodium nitroprusside) at the end of the experiment (NK-1 receptor; 2 μg/min SNP into hand vein after last Substance P infusion, not different from placebo (p=0.69)): 92±9%
maximum antagonizing effect (% antagonism of Substance P-induced venodilation) (NK-1 receptor; 250 mg oral, 17 healthy participants, mean±SEM, 95% CI 78, 111): 95±8%
Substance P-induced venodilation after administration (versus placebo) (NK-1 receptor; 250 mg oral, 17 healthy participants, p<0.001 vs placebo): markedly decreased
time of maximum antagonizing effect (mean) (NK-1 receptor; 250 mg oral, 17 participants, mean±SEM, 95% CI 0.96, 1.98): 1.47 ± 0.24 h
mean AUCe (area under the effect-time curve) (NK-1 receptor; 250 mg oral, 17 participants, mean±SEM, 95% CI 198, 358, p<0.001 vs placebo): 278±67 %·h
time of maximum antagonizing effect (median) (NK-1 receptor; 250 mg oral, 17 participants, median): 1.25 h
time to peak plasma concentration ([2]; 250 mg oral solution, single dose, 18 healthy participants, mean±SEM): ≤ 47 ± 3 min
ratio between maximal and minimal value for AUC (inter-individual variability) [2, 3]: 6.3
ratio between maximal and minimal value for Cmax (inter-individual variability) [2, 3]: 6.5
half-life ([2]; male, human, plasma, 250 mg oral solution, single dose, 18 healthy participants, mean±SEM): 9.9 ± 1.6 h
AUC(0-inf) ([2]; male, human, plasma, 250 mg oral solution, single dose, 18 healthy participants, mean±SEM, read-out: mean AUC0-∞): 183 ± 22 ng·h/mL
Cmax ([2]; male, human, plasma, 250 mg oral solution, single dose, 18 healthy participants, mean±SEM, read-out: peak plasma concentration (Cmax)): 77 ± 9 ng/mL
Structure (SMILES): O=C(c1cc(C(F)(F)F)cc(C(F)(F)F)c1)N1CCN(Cc2n[nH]nc2CN2CCOCC2)C[C@H]1Cc1c[nH]c2ccccc12 [Compound D, (2R)-1-[3,5-bis(trifluoromethyl)benzoyl]-2-(1H-indol-3-ylmethyl)-4-{[5-(morpholinomethyl)-2H-1,2,3-triazol-4-yl]methyl}piperazine-dihydrochloride]
serious adverse events ([1]; 250 mg oral, 19 participants in safety analysis): No serious adverse event occurred
changes in heart rate, blood pressure, or ECG parameters ([1]; 250 mg oral, single dose): Neither Compound D nor placebo induced significant changes
tolerability ([1]; 250 mg oral, single dose): well tolerated in all participants
adverse events possibly related to the study drug (number) ([1]; 250 mg oral, mild headache, severe headache, cloudy urine, all resolved): 3
heart rate ([1]; 4.5 h after administration (baseline 60±2; p=0.14)): 63±2 beats/min
diastolic blood pressure ([1]; 4.5 h after administration (baseline 68±3; p=0.12)): 72±2 mmHg
systolic blood pressure ([1]; 4.5 h after administration (baseline 124±3; p=0.10)): 127±2 mmHg
persistence of antagonistic effect relative to plasma concentration (NK-1 receptor; 250 mg oral, up to 4.25 h after dosing, counter-clockwise hysteresis): antagonistic effect persisted throughout the study while plasma concentrations declined
plasma detectability 24 h after dosing (terminal phase) ([2]; 250 mg oral, 24 h after dosing, lower limit of quantification 0.2 ng/ml): still detectable in low concentrations in all participants
